Paper PMC12609579, “Acute Myeloid Leukemia: A Key Role of DGKα and DGKζ in Cell Viability” (Cells, 2025)
Like-named read-outs stand apart in the source and are kept apart here.

Key:
[1] = target: serotonin 5-HT2A receptor; conditions: cited from earlier work
[2] = test system: normal hematopoietic stem cell samples; design: method as in PMID 37392305; conditions: 40 μM; cited from earlier work
[3] = test system: bone marrow mononuclear cells from primary AML samples; design: method as in PMID 37392305; conditions: 40 μM; cited from earlier work
HL-60 cells [4] = assay: alamarBlue cell viability assay, HL-60; format: cell-based, human
Protocol: (§1) The alamarBlue assay was performed to assess cell viability in presence of chemical inhibitors. A total of 50,000 cells per well were seeded in a 96-wells plate in a volume of 100 μL of complete medium together with 10 μL of 10× concentrated inhibitor solution and then incubated for either 24 or 72 h. Each experimental condition was performed in technical quadruplicates, using cells treated with equal amounts of DMSO vehicle as control and medium alone as background. After incubation, alamarBlue was added to each well at a final concentration of 0.15 mg/mL. The fluorescence of the samples was measured 24 h later using a Spark 10 M Multimode Plate Reader (Tecan, Switzerland) with excitation and emission wavelengths of 535 nm and 590 nm, respectively. For dose–response curve fitting, fluorescence values were normalized according to the following formula:Viability (%) = [(sample mean fluorescence)/(DMSO control mean fluorescence)] ∗ 100
(§2) Data are the results of at least five independent experiments analyzed with GraphPad Prism 10 as [inhibitor] vs. normalized response curve (variable slope, after manual outlier removal).

Kasumi-1 [5] = test system: Kasumi-1; design: method as in PMID 37392305; conditions: xenograft mouse models injected with Kasumi-1; cited from earlier work
THP-1 cells [6] = assay: Annexin V-FITC/7AAD apoptosis/necrosis flow cytometry, THP-1; format: cell-based, human; conditions: THP-1, 24 h
Protocol: (§3) To determine the type of cell death, apoptotic and necrotic cells were detected by flow cytometry using the Apoptosis Detection Kit Annexin V-FITC (Invitrogen, Carlsbad, CA, USA). For each sample, 500,000 cells, pretreated for 24 h, were stained according to manufacturer’s instructions, using 7-aminoactinomycin D (7AAD) instead of propidium iodide. Samples were analyzed on a BD FACS Symphony A5 flow cytometer (Franklin Lakes, NJ, USA) using BD FACSDiva 9.1 software. Data were gated based on FSC-A vs. FSC-H to exclude cell doublets and FSC-A vs. SSC-A to exclude debris. Different populations were identified as: live (Annexin V− and 7AAD−), necrotic (Annexin− and 7AAD+), early apoptotic (Annexin V+ and 7AAD−) and late apoptotic (Annexin+ and 7AAD+). Data are shown as mean ± SD of at least three independent experiments analyzed by GraphPad Prism 10 (control vs. [inhibitor]).

HEL cells [7] = assay: alamarBlue cell viability assay, HEL; format: cell-based, human
Protocol: as §1, §2

HL-60 cells [8] = assay: Annexin V-FITC/7AAD apoptosis/necrosis flow cytometry, HL-60; format: cell-based, human; conditions: HL-60, 24 h
Protocol: as §3

[9] = target: serotonin 5-HT2C receptor; design: method as in PMID 2860558; conditions: cited from earlier work
THP-1 cells [10] = assay: alamarBlue cell viability assay, THP-1; format: cell-based; conditions: Homo sapiens
Protocol: as §1, §2

Kasumi-1 [11] = test system: Kasumi-1; design: method as in PMID 37392305; conditions: read-out: IC50 (cytotoxic effects), cited from earlier work
HEL cells [12] = assay: Annexin V-FITC/7AAD apoptosis/necrosis flow cytometry, HEL; format: cell-based, human; conditions: 24 h
Protocol: as §3

THP-1 cells [13] = assay: IPA canonical pathway analysis of differentially abundant proteins; format: cell-based, human; conditions: THP-1, 24 h; ritanserin 50 µM, BAY 2965501 75 µM
From the text: A Venn diagram was created to depict the overlap of differentially abundant proteins shared between the two treatments. These proteins, along with their gene symbols and log2FC values, were then used as input for IPA Core Analysis. The following filters were applied: human species and reference tissues/cells (hematopoietic progenitor cells, macrophages, monocytes, peripheral blood monocytes, and THP1 leukemic cells). The resulting Ingenuity Canonical Pathways were downloaded using standard filters and further refined to consider only those with a |Z-score| > 1. For ritanserin vs. DMSO, the top 15 most significant pathways were represented in a bar plot, while for BAY 2965501 vs. DMSO, only three significant pathways were identified and plotted.

KG-1α = test system: KG-1α; design: method as in PMID 37392305; conditions: read-out: IC50 (cytotoxic effects), cited from earlier work
K562 cells [14] = assay: Annexin V-FITC/7AAD apoptosis/necrosis flow cytometry, K562; format: cell-based, human; conditions: K562, 24 h
Protocol: as §3

K562 cells [15] = assay: alamarBlue cell viability assay, K562; format: cell-based, human
Protocol: as §1, §2

[16] = concentration close to IC50, representative plot

Q: For `Cc1nc2sccn2c(=O)c1CCN1CCC(=C(c2ccc(F)cc2)c2ccc(F)cc2)CC1` [ritanserin], which Ki [1] is on record?
A: 0.00045 µM

Q: And the “apoptosis, % of cells” value [2]?
A: below 30%

Q: What about the “apoptosis, % of cells” value [3] of the same molecule?
A: up to 70%

Q: What about the IC50 (HL-60 cells [4]; HL-60, 24 h treatment then alamarBlue 24 h) of the same molecule?
A: ~38 µM

Q: What about the IC50 (HL-60 cells [4]; Homo sapiens, HL-60, 24 h, HL-60, 24 h treatment then alamarBlue 24 h) of the same molecule?
A: 37.6 ± 1.5 µM

Q: What about the IC50 (HL-60 cells [4]; Homo sapiens, HL-60, HL-60, 72 h treatment then alamarBlue 24 h) of the same molecule?
A: 25.3 ± 0.9 µM

Q: And the survival (Kasumi-1 [5])?
A: improved survival

Q: And the tumor burden (Kasumi-1 [5])?
A: significant reduction

Q: And the “Early apoptotic (Annexin V+ 7AAD-)” value (THP-1 cells [6]; [16])?
A: 14.4%

Q: What about the “Late apoptotic (Annexin+ 7AAD+)” value (THP-1 cells [6]; [16]) of the same molecule?
A: 2.2%

Q: And the “Live cells (Annexin V- 7AAD-)” value (THP-1 cells [6]; [16])?
A: 83.2%

Q: And the “Necrotic (Annexin- 7AAD+)” value (THP-1 cells [6]; [16])?
A: 0.2%

Q: What about the “modality of cell death” value (THP-1 cells [6]; concentration near IC50) of the same molecule?
A: early apoptosis

Q: What about the IC50 (HEL cells [7]; 24 h treatment then alamarBlue 24 h) of the same molecule?
A: ~49 µM

Q: And the IC50 (HEL cells [7]; Homo sapiens, 24 h, 24 h treatment then alamarBlue 24 h)?
A: 49.2 ± 2 µM

Q: What about the IC50 (HEL cells [7]; Homo sapiens, 72 h treatment then alamarBlue 24 h) of the same molecule?
A: 29.6 ± 1 µM

Q: What about the “Early apoptotic (Annexin V+ 7AAD-)” value (HL-60 cells [8]; [16]) of the same molecule?
A: 3.3%

Q: And the “Late apoptotic (Annexin+ 7AAD+)” value (HL-60 cells [8]; [16])?
A: 62.9%

Q: What about the “Live cells (Annexin V- 7AAD-)” value (HL-60 cells [8]; [16]) of the same molecule?
A: 33.8%

Q: And the “Necrotic (Annexin- 7AAD+)” value (HL-60 cells [8]; [16])?
A: 0%

Q: And the “modality of cell death” value (HL-60 cells [8]; concentration near IC50)?
A: late apoptosis

Q: What about the Ki [9] of the same molecule?
A: 0.00071 µM

Q: And the IC50 (THP-1 cells [10]; THP-1, 24 h, THP-1, 24 h treatment then alamarBlue 24 h)?
A: 37 ± 1.4 µM

Q: What about the IC50 (THP-1 cells [10]; THP-1, THP-1, 72 h treatment then alamarBlue 24 h) of the same molecule?
A: 32 ± 1.5 µM

Q: And the IC50 (Kasumi-1 [11]; Kasumi-1, 24 h)?
A: 51 µM

Q: What about the IC50 (Kasumi-1 [11]; Kasumi-1, 72 h) of the same molecule?
A: 30 µM

Q: What about the “Early apoptotic (Annexin V+ 7AAD-)” value (HEL cells [12]; [16]) of the same molecule?
A: 12.2%

Q: And the “Late apoptotic (Annexin+ 7AAD+)” value (HEL cells [12]; [16])?
A: 2.3%

Q: And the “Live cells (Annexin V- 7AAD-)” value (HEL cells [12]; [16])?
A: 82.5%

Q: What about the “Necrotic (Annexin- 7AAD+)” value (HEL cells [12]; [16]) of the same molecule?
A: 2.9%

Q: And the “modality of cell death” value (HEL cells [12]; concentration near IC50)?
A: early apoptosis

Q: And the “number of pathways affected / significantly downmodulated” value (THP-1 cells [13])?
A: more than 500

Q: What about the IC50 (KG-1α; 24 h) of the same molecule?
A: 38 µM

Q: What about the IC50 (KG-1α; 72 h) of the same molecule?
A: 26 µM

Q: And the “Early apoptotic (Annexin V+ 7AAD-)” value (K562 cells [14]; [16])?
A: 6.2%

Q: What about the “Late apoptotic (Annexin+ 7AAD+)” value (K562 cells [14]; [16]) of the same molecule?
A: 1.7%

Q: What about the “Live cells (Annexin V- 7AAD-)” value (K562 cells [14]; [16]) of the same molecule?
A: 90.1%

Q: What about the “Necrotic (Annexin- 7AAD+)” value (K562 cells [14]; [16]) of the same molecule?
A: 2.0%

Q: And the “modality of cell death” value (K562 cells [14]; concentration near IC50)?
A: early apoptosis

Q: And the IC50 (K562 cells [15]; Homo sapiens, K562, 24 h, K562, 24 h treatment then alamarBlue 24 h)?
A: 70.4 ± 2.2 µM

Q: What about the IC50 (K562 cells [15]; Homo sapiens, K562, K562, 72 h treatment then alamarBlue 24 h) of the same molecule?
A: 42.5 ± 1.8 µM

Q: What about the IC50 (K562 cells [15]; K562, 24 h treatment then alamarBlue 24 h) of the same molecule?
A: ~70 µM
